Test results from ChEMBL document CHEMBL1137110, “Synthesis and biological activity of 22-oxa CD-ring modified analogues of 1alpha,25-dihydroxyvitamin D3: spiro[5.5]undecane CF-ring analogues” (2004).

How the values were obtained:
[1] = biological target: T1, Vitamin D3 receptor (Homo sapiens) (UniProt P11473); assay: Antiproliferative activity in human breast cancer MCF-7 cells relative to 1-alpha,25(OH)2D3; format: functional, cell-based; conditions: MCF7
T1 sequence (whole entry): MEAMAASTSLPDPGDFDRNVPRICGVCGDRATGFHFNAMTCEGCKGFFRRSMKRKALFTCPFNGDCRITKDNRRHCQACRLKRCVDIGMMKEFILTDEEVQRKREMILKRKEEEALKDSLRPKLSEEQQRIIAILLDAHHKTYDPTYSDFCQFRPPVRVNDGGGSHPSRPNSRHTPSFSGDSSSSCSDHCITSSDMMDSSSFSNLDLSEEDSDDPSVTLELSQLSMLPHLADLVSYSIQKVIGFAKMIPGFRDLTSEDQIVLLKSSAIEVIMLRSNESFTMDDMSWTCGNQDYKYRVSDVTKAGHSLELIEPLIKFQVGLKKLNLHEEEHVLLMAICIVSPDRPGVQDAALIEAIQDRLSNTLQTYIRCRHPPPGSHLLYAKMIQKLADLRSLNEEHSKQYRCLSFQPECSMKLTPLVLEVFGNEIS

[2] = biological target: T2, Vitamin D3 receptor (Sus scrofa) (UniProt A3RGC1); assay: Binding affinity for pig nuclear vitamin D receptor relative to 1-alpha,25(OH)2D3
T2 sequence (whole entry): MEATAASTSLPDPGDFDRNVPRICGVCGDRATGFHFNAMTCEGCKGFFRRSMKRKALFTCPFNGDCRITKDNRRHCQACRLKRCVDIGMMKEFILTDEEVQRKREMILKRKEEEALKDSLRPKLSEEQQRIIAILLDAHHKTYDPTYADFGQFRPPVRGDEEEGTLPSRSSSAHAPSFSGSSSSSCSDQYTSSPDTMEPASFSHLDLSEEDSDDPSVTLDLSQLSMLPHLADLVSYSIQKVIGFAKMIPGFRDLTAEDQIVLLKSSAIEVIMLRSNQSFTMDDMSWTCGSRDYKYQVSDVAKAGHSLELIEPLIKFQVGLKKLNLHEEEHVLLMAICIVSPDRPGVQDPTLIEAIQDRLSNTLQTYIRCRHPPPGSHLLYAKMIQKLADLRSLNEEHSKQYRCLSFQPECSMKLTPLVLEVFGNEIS

[3] = biological target: T1, Vitamin D3 receptor (Homo sapiens); assay: Differentiation activity in human leukemia HL-60 cells relative to 1-alpha,25(OH)2D3; format: functional, cell-based
[4] = biological target: T3, Vitamin D3 receptor (Mus musculus) (UniProt P48281); assay: Effect on Ca level in mouse serum relative to 1-alpha,25(OH)2D3 treatment; format: functional, in vivo
T3 sequence (whole entry): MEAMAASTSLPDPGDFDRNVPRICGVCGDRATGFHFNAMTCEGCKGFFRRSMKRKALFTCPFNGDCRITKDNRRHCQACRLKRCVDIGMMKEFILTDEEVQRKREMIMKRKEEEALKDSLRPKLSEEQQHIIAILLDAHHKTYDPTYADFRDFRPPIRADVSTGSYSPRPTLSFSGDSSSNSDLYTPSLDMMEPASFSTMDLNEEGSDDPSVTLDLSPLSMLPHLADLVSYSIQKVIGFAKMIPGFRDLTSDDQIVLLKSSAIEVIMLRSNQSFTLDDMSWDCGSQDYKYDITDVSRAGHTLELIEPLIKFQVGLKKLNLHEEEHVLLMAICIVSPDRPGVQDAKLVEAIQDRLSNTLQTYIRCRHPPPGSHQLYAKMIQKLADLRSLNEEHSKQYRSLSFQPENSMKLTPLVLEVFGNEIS

HL-60 = assay: Prodifferentiating activity of compound on human leukemia HL-60 cells was determined; format: functional
MCF7 = assay: Antiproliferative activity on human breast cancer MCF-7 cells was determined; format: functional
[5] = biological target: T2, Vitamin D3 receptor (Sus scrofa); assay: Binding affinity for pig nuclear vitamin D receptor
Mus musculus = species on record: Mus musculus; assay: Effect of compound on Ca level in mice blood serum was determined; format: functional

**Q.** Which Activity [1] does the source give for `CC(C)(O)CCO[C@H]1CC[C@@]2(CCC/C(=C\C=C3C[C@@H](O)C[C@H](O)C3)C2)CC1` here?
**A.** 60

**Q.** What about the Activity [2] of the same compound?
**A.** < 0.1

**Q.** What about the Activity [3] of the same compound?
**A.** 8

**Q.** And the Activity [4]?
**A.** < 0.25

**Q.** `C=C1/C(=C/C=C2/CCC[C@]3(CC[C@H](OCCC(C)(C)O)CC3)C2)C[C@@H](O)C[C@@H]1O` was tested. Which Activity [1] did it give?
**A.** 0

**Q.** And the Activity [2]?
**A.** < 0.1

**Q.** And the Activity [3]?
**A.** < 1

**Q.** What about the Activity [4] of the same compound?
**A.** < 0.25

**Q.** `C=C1/C(=C\C=C2/CCC[C@]3(CC[C@@H](OCCC(C)(C)O)CC3)C2)C[C@@H](O)C[C@@H]1O` was tested. Which Activity [1] did it give?
**A.** 10

**Q.** And the Activity [2]?
**A.** 0.5

**Q.** And the Activity [4]?
**A.** < 0.25

**Q.** What does the source list for `CC(C)(O)CCO[C@H]1CC[C@]2(CCC/C(=C\C=C3C[C@@H](O)C[C@H](O)C3)C2)CC1`?
**A.** Activity [1]: 7; Activity [2]: < 0.1; Activity [3]: 6; Activity [4]: < 0.25

**Q.** Which Activity (HL-60) does the source give for `C=C1/C(=C\C=C2/CCC[C@]3(C)[C@@H]([C@H](C)CCCC(C)(C)O)CC[C@@H]23)C[C@@H](O)C[C@@H]1O` [CALCITRIOL] here?
**A.** 100

**Q.** What about the Activity (MCF7) of the same compound?
**A.** 100

**Q.** What about the Activity [5] of the same compound?
**A.** 100

**Q.** And the Activity (Mus musculus)?
**A.** 100
